# Measurements reported in patent publication US20060128645A1, “Inhibition of proliferation and infiltration of brain tumor cells caused by expression of ampa-type glutamate receptor subunit” (priority 2002, published 2006).
# Tests used:
# tumor cells = experiment: Tumor cells cultured in glutamate-free medium, glutamate add-back; format: cell-based, human; settings: addition of 100 ˜M glutamate after 4˜5 days in glutamate-free medium with 10% dialyzed FCS
# Experimental: The endogenous agonist for AMPARs is glutamate. The culture medium in this experiment was supplemented with fetal calf serum (FCS) and contained up to 100 μM glutamate. The presence of glutamate was essential for maintenance of fusiform morphology as well as proliferation of the tumor cells. When the cells were cultured in glutamate-free medium supplemented with 10% dialyzed FCS for 4˜5 days, they became polygonal in shape and the number of apoptotic cells increased. These changes were restored by addition of 100 ˜M glutamate. An obvious question is whether a sufficient concentration of glutamate to activate Ca^2+-permeable AMPARs is actually supplied to proliferating and migrating tumor cells in the brain. It has been shown that implanted glioma cells continue to secrete glutamate, resulting in a detectable elevation of extracellular glutamate, and that gliomas with high glutamate release have a distinct growth advantage (Nature Med., 7, 1010-1015, 2001).
# CGNH-89 cells [1] = experiment: Cell morphology of CGNH-89 glioblastoma cells; format: cell-based, human
# [2] = target: T1, Ca^2+-permeable AMPARs in glioblastoma cells in primary culture (Homo sapiens, UniProt P42261); experiment: AMPA-induced [Ca2+]i changes (fura-2 AM) in primary cultured glioblastoma cells; format: cell-based
# T1 construct: To examine functional expression of Ca^2+-permeable AMPARs in glioblastoma cells in primary culture; endogenous in cells; host or cells: primary (explant) cultures of glioblastoma multiforme surgical samples
# Experimental: (§1) Cells were loaded with fura 2-AM (Dojin) at room temperature for 40 min. Fluorescence images were obtained at an excitation wavelength of 340 and 380 nm using the Argus/HiSCA system (Hamamatsu Photonics). The 340/380 nm fluorescence ratio was converted to [Ca^2+]i as described previously (Cell, 88, 49-55, 1997).
# CGNH-89 cells [3] = experiment: TUNEL apoptotic index in CGNH-89 cells; format: cell-based, human; settings: 10 μM YM872, 2 days, n=4
# Description: The present inventors next estimated the apoptotic index in CGNH-89 cells expressing GluR2 (R) using the terminal deoxynucleotide transferase (TdT)-mediated dUTP nick end labeling (TUNEL) method (Science, 267, 1445-1449, 1995), and compared this value with that in cells infected with only AxCALNLGluR2 (control). The apoptotic index was defined as the number of TUNEL-positive cells divided by the total number of propidium iodine (PI)-positive nuclei per microscopic field. To obtain the mean value in each culture dish, 10 to 15 randomly chosen fields were sampled.
# For TUNEL and cell proliferation assays, cells were plated at a density of 2×10^4/well in Lab-Tek 4-well glass slides filled with the standard culture medium. At 6 hr. after plating, the medium was replaced with glutamate-free medium and cells were infected with the adenoviruses. At 48 hr. after plating, glutamate (100 μM) was added to the medium and cells were fixed at 5 days postinfection. TUNEL assay was performed with an In Situ Cell Death Detection kit (MBL). Cell proliferation assay was performed with anti-Ki-67 monoclonal antibody (Dako) staining indices. Migration assay was performed in a transwell chamber (8 μm pore size) (Corning Corstar Corp.).
# CGNH-89 cells [4] = experiment: Ki-67 staining index (proliferation activity) in CGNH-89 cells; format: cell-based, human; settings: 10 μM YM872, 2 days, n=4
# Experimental: There were no significant changes in these 2 indices between cells expressing GluR2 (Q) and overexpressing GluR1.
# For TUNEL and cell proliferation assays, cells were plated at a density of 2×10^4/well in Lab-Tek 4-well glass slides filled with the standard culture medium. At 6 hr. after plating, the medium was replaced with glutamate-free medium and cells were infected with the adenoviruses. […] TUNEL assay was performed with an In Situ Cell Death Detection kit (MBL). Cell proliferation assay was performed with anti-Ki-67 monoclonal antibody (Dako) staining indices. Migration assay was performed in a transwell chamber (8 μm pore size) (Corning Corstar Corp.).
# [5] = system: CGNH-NM, MRCH-92 and U87 MG; experiment: Other 3 cell lines expressing Ca2+-permeable AMPARs: morphology, apoptotic index, Ki-67 index, migration; format: cell-based, human
# [6] = system: tumor produced by grafting CGNH-89 cells into the subcutaneous tissue; experiment: Subcutaneous CGNH-89 tumor growth in nude mice; format: in vivo
# Description: To further estimate quantitatively whether manipulation of Ca^2+-permeable AMPARs alters tumor growth in vivo, the present inventors examined effects of GluR2 and GluR2 (Q) expression and/or application of the AMPAR antagonist YM872 on the growth of tumor produced by grafting CGNH-89 cells into the subcutaneous tissue of nude mice (FIG. 6)-(FIGS. 6a and b).
# Proliferation of tumor cells expressing GluR2 (Q) was inhibited by application of YM872 (FIGS. 6g, h and i).
# In addition, the effect of adenoviral-mediated expression of GluR2 (R) and GluR2 (Q) on tumor growth was evaluated quantitatively in subcutaneous tumors with or without application of YM872, an antagonist for AMPA-type glutamate receptors. Cell suspensions (1×10^7/100 μl) were injected subcutaneously in the flank of nude mice 5˜6 weeks old (body weight, 18˜20 g). Adenoviruses ([…], diluted in a total of 100 μl of PBS) were administered intratumorally once 5 days after tumor inoculation with a 27-gauge needle. AxCALNLGluR2 without AxCANCre was administered for control.
# YM872, a kind gift from Yamanouchi Pharmaceutical Company, was dissolved in PBS. […] In this series of experiments, 100 mg/kg YM872 was used. PBS (100 μl) was administered intraperitoneally for control. Tumor volume was calculated according to the formula (length×width^2 )/2. At the end of each experiment, tumor tissues were subjected to histological analysis.
# CGNH-89 cells [7] = experiment: ATP-induced [Ca2+]i increase in CGNH-89 cells; format: cell-based, human; settings: 25 μM ATP; control cells, n=50
# Experimental: The present inventors examined whether CGNH-89 cells expressing GluR2 (R) could increase [Ca^2+]i to a similar extent as control cells in response to ATP, which is known to mediate Ca^2+ signaling in glial cells (J. Neurosci., 18, 8794-8804, 1998).
# as §1
# [8] = system: Ca^2+-permeable AMPARs in CGNH-89 cells; experiment: AMPA-induced [Ca2+]i changes (fura-2 AM) in CGNH-89 cells after adenoviral gene transfer; format: cell-based, human; settings: 200 μM AMPA + 100 μM CTZ
# Experimental: In FIGS. 3p˜x, the present inventors confirmed changes in Ca^2+ permeability induced by adenoviral-mediated introduction of GluR2 (R) or GluR2 (Q) in CGNH-89 cells. […] The same treatment had no effect on [Ca^2+]i in cells expressing GluR2 (FIGS. 3s, t and u) in 4 culture dishes, whereas it caused a marked increase in [Ca^2+]i from 77±21 to 1185±240 nM (n=40) in cells expressing GluR2 (Q) in 2 culture dishes (FIGS. 3v, w and x).
# (2) AxCANCre and AxCAGFP: recombinant adenoviruses for expression of Cre recombinase and EGFP (Clontech), respectively. Cells were infected at a multiplicity of infection (MOI) of 5 with each of the recombinant adenoviruses 2˜5 days before experiments.
# as §1
# [9] = other 3 cell lines (CGNH-NM, MRCH-92, U87 MG)
# [10] = 22 days after tumor inoculation
# T1 sequence (P42261 19-906): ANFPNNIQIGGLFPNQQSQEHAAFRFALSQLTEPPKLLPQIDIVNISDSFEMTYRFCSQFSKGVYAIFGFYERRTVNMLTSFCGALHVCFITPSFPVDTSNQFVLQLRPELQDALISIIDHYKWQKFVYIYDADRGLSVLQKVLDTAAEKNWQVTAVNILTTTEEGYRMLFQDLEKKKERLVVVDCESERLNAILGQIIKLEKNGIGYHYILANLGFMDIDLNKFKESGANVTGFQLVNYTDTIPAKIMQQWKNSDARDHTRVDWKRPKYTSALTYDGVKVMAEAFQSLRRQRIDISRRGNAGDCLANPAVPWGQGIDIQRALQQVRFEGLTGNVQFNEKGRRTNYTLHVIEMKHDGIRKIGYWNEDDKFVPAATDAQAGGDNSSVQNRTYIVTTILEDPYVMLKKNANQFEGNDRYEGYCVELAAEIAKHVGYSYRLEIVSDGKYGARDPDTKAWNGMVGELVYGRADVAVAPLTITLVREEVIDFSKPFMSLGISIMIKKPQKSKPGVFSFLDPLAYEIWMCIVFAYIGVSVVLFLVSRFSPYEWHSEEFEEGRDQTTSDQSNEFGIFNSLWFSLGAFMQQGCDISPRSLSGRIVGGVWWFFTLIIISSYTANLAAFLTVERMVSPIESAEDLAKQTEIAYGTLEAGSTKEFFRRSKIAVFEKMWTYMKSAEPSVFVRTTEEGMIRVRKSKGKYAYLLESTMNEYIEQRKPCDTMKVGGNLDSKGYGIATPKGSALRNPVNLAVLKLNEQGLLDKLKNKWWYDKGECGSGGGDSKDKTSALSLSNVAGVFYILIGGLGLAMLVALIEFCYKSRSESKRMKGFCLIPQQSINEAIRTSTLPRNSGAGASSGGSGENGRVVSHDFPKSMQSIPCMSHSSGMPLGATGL
structure (smiles),measurement,setting,value
N[C@@H](CCC(=O)O)C(=O)O [glutamate],polygonal shape and increased apoptotic cells caused by glutamate-free medium,tumor cells,restored
"NS(=O)(=O)c1cccc2c1c([N+](=O)[O-])cc1nc(O)c(O)nc12 [NBQX, 2,3-dihydroxy-6-nitro-7-sulfamoyl-benzo(F)-quinoxaline]",change in cell morphology,CGNH-89 cells [1]; 20 μM NBQX for 2 days,"retraction of cytoplasmic processes, enlarged and flattened somata"
[K+] [K^+],effect on [Ca^2+]i,[2]; 100 mM K^+,did not increase
"O.O=C(O)Cn1c(=O)c(=O)[nH]c2cc([N+](=O)[O-])c(-n3ccnc3)cc21 [YM872, [2,3-dioxo-7-(1H-imidazol-1-yl)-6-nitro-1,2,3,4-tetrahydroquinoxalin-1-yl]acetic acid monohydrate]",effect on AMPA-induced increase in [Ca^2+]i,[2]; 10 μM YM872,selectively abolished
same,change in cell morphology,CGNH-89 cells [1]; 10 μM YM872 for 2 days,"retraction of cytoplasmic processes, enlarged and flattened somata"
same,apoptotic index,CGNH-89 cells [3],18.0±2.5%
same,Ki-67 staining index,CGNH-89 cells [4],< 0.1%
same,Ki-67 staining index,[5]; [9],decreased
same,apoptotic index,[5]; [9],increased
same,cell migration,[5]; other 3 cell lines expressing Ca^2+-permeable AMPARs,inhibited the cell migration
same,apoptotic cells in tumor tissues (histology),[6]; [10],a large number of apoptotic cells
same,mitotic cells in tumor tissues (histology),[6]; [10],scarcely detected
same,further effect on tumor expressing GulR2,"[6]; YM872 intraperitoneal, 100 mg/kg",no further inhibitory effects
same,size of tumor,"[6]; YM872 intraperitoneal, 100 mg/kg daily, vs PBS, n=12",significantly reduced
same,growth of tumor expressing GluR2 (Q),"[6]; YM872 intraperitoneal, 100 mg/kg, n=12",inhibited
same,proliferation of tumor cells expressing GluR2 (Q) (histology),[6]; application of YM872,inhibited
same,"inhibition of tumor growth, dose dependence","[6]; daily intraperitoneal 10, 50 and 100 mg/kg for 2 weeks",Dose-dependent inhibition
same,tumor proliferation in cells expressing GluR2 (histology),[6]; treatment with YM872,no further inhibition
Nc1ncnc2c1ncn2[C@@H]1O[C@H](COP(=O)(O)OP(=O)(O)OP(=O)(O)O)[C@@H](O)[C@H]1O [ATP],[Ca^2+]i after application of ATP,CGNH-89 cells [7],1574 ± 161 nM
"Cc1onc(O)c1CC(N)C(=O)O (stereo not drawn) [AMPA, α-amino-3-hydroxy-5-methyl-4-isoxazole propionic acid]",control cells in which [Ca^2+]i increased,[8]; 10 culture dishes,52±14%
same,[Ca^2+]i during application of AMPA together with CTZ,"[8]; control CGNH-89 cells, n=350",275 ± 50 nM
